Experimental findings from patent US8106072B2, “7- (4-substituted-3-cyclopropylaminomethyl-1-pyrrolidinyl) quinolonecarboxylic acid derivative” (Kyorin Pharmaceutical Co., Ltd., priority 2003, dated 2012) are described below.

What all share (assay): In vitro antibacterial activity (MIC, agar plate dilution)
What all share (type): cell-based

For one assay, the system named is E. faecalis IID682. To be noted: Enterococcus faecalis, Muller-Hinton agar supplemented with 5% defibrinated horse blood. The protocol:
(§1) The in-vitro antibacterial activity of the compound of the present invention, as measured by the minimum inhibitory concentration (MIC), was determined by the agar plate dilution technique using Mueller-Hinton agar medium. The technique met the criteria specified by the National Committee for Clinical Laboratory Standard (1997) [NCCLS. Methods for Dilution Antibacterial Susceptibility Tests for Bacteria that grow Aerobically—Forth Edition: Approved Standard m7-A4. NCCLS, Villanova, Pa.]. For Streptococcus pneumonia and Enterococcus, the MIC values were determined by using Muller-Hinton agar supplemented with 5% defibrinated horse blood.

The test system of a further assay is S. aureus MR5867. To be noted: Staphylococcus aureus, S. aureus MR5867 (methicillin-resistant S. aureus), Mueller-Hinton agar. The protocol: as §1
Another assay has as its system S. aureus MS16401. To be noted: Staphylococcus aureus, S. aureus MS16401 (quinolone-resistant S. aureus), Mueller-Hinton agar. The protocol: as §1
A further assay has as its system S. aureus Smith. To be noted: Staphylococcus aureus, Mueller-Hinton agar. Here is the method:
as §1

The subject of a further assay is S. pneumoniae Type III. To be noted: Streptococcus pneumoniae, Muller-Hinton agar supplemented with 5% defibrinated horse blood. The protocol: as §1

≈ marks a conversion by molar mass, not a printed value.

With `COc1c(N2C[C@@H](CNC3CC3)[C@H](C(F)(F)F)C2)c(F)cc2c(=O)c(C(=O)O)cn(C3CC3)c12` (relative stereo) [Example 6, 1-cyclopropyl-7-(trans-3-cyclopropylaminomethyl-4-trifluoromethyl-1-pyrrolidinyl)-6-fluoro-1,4-dihydro-8-methoxy-4-oxo-3-quinolinecarboxylic acid], the MIC in the assay on E. faecalis IID682 came out at 250 µg/mL (≈ 517 µM); in the assay with S. aureus MR5867, 8 µg/mL (≈ 16.5 µM); against S. aureus MS16401 it was 63 µg/mL (≈ 130 µM); against S. aureus Smith, 31 µg/mL (≈ 64.1 µM); against S. pneumoniae Type III, 63 µg/mL (≈ 130 µM).

For `COc1c(N2C[C@H](CNC3CC3)[C@@H](C)C2)ccc2c(=O)c(C(=O)O)cn(C3CC3)c12` [Example 7, 1-cyclopropyl-7-[(3S,4R)-3-cyclopropylaminomethyl-4-methyl-1-pyrrolidinyl]-1,4-dihydro-8-methoxy-4-oxo-3-quinolinecarboxylic acid], the MIC in the assay with E. faecalis IID682 was determined as 250 µg/mL (≈ 608 µM); against S. aureus MR5867, 63 µg/mL (≈ 153 µM); in the assay on S. aureus MS16401, 125 µg/mL (≈ 304 µM); in the assay with S. aureus Smith, 31 µg/mL (≈ 75.3 µM); in the assay with S. pneumoniae Type III, 63 µg/mL (≈ 153 µM).

Consider `COc1c(N2C[C@H](CNC3CC3)[C@H](F)C2)ccc2c(=O)c(C(=O)O)cn(C3CC3)c12` [Example 2, 1-cyclopropyl-7-[(3S,4S)-3-cyclopropylaminomethyl-4-fluoro-1-pyrrolidinyl]-1,4-dihydro-8-methoxy-4-oxo-3-quinolinecarboxylic acid], for which the MIC in the assay with E. faecalis IID682 amounted to 125 µg/mL (≈ 301 µM); against S. aureus MR5867, 16 µg/mL (≈ 38.5 µM); against S. aureus MS16401, 31 µg/mL (≈ 74.6 µM); in the assay with S. aureus Smith, 8 µg/mL (≈ 19.3 µM); against S. pneumoniae Type III it was 31 µg/mL (≈ 74.6 µM).

Turning to `COc1c(N2C[C@H](CNC3CC3)[C@@H](F)C2)c(F)cc2c(=O)c(C(=O)O)cn(C3CC3)c12` [Example 9, 1-cyclopropyl-7-[(3S,4R)-3-cyclopropylaminomethyl-4-fluoro-1-pyrrolidinyl]-6-fluoro-1,4-dihydro-8-methoxy-4-oxo-3-quinolinecarboxylic acid], the MIC in the assay with E. faecalis IID682 is 63 µg/mL (≈ 145 µM); against S. aureus MR5867, at most 8 µg/mL; in the assay with S. aureus MS16401, 16 µg/mL (≈ 36.9 µM); in the assay with S. aureus Smith, at most 8 µg/mL; in the assay on S. pneumoniae Type III, at most 8 µg/mL.

Consider `O=C(O)c1cn(C2CC2)c2c(OC(F)F)c(N3C[C@H](CNC4CC4)[C@H](F)C3)c(F)cc2c1=O` [Example 3, 1-cyclopropyl-7-[(3S,4S)-3-cyclopropylaminomethyl-4-fluoro-1-pyrrolidinyl]-6-fluoro-8-difluoromethoxy-1,4-dihydro-4-oxo-3-quinolinecarboxylic acid], for which the MIC is 125 µg/mL (≈ 266 µM) in the assay on E. faecalis IID682; 8 µg/mL (≈ 17 µM) in the assay on S. aureus MR5867; 8 µg/mL (≈ 17 µM) in the assay on S. aureus MS16401; 8 µg/mL (≈ 17 µM) in the assay with S. aureus Smith; 16 µg/mL (≈ 34.1 µM) in the assay with S. pneumoniae Type III.

For `O=C(O)c1cn(C2CC2)c2c(OC(F)F)c(N3C[C@H](CNC4CC4)[C@H](F)C3)ccc2c1=O` [Example 4, 1-cyclopropyl-7-[(3S,4S)-3-cyclopropylaminomethyl-4-fluoro-1-pyrrolidinyl]-8-difluoromethoxy-1,4-dihydro-4-oxo-3-quinolinecarboxylic acid], the minimum inhibitory concentration (MIC) was determined as 500 µg/mL (≈ 1110 µM) against E. faecalis IID682; 31 µg/mL (≈ 68.7 µM) against S. aureus MR5867; 63 µg/mL (≈ 140 µM) against S. aureus MS16401; 16 µg/mL (≈ 35.4 µM) in the assay on S. aureus Smith; 63 µg/mL (≈ 140 µM) against S. pneumoniae Type III.

Turning to `COc1c(N2C[C@H](CNC3CC3)[C@H](F)C2)c(F)cc2c(=O)c(C(=O)O)cn(C3CC3)c12` [Example 1, 1-cyclopropyl-7-[(3S,4S)-3-cyclopropylaminomethyl-4-fluoro-1-pyrrolidinyl]-6-fluoro-1,4-dihydro-8-methoxy-4-oxo-3-quinolinecarboxylic acid], the minimum inhibitory concentration (MIC) is 63 µg/mL (≈ 145 µM) against E. faecalis IID682; 8 µg/mL (≈ 18.5 µM) against S. aureus MR5867; 4 µg/mL (≈ 9.23 µM) against S. aureus MS16401; 8 µg/mL (≈ 18.5 µM) against S. aureus Smith; at most 8 µg/mL in the assay with S. pneumoniae Type III.

Regarding `COc1c(N2C[C@@H](CNC3CC3)[C@H](C)C2)ccc2c(=O)c(C(=O)O)cn(C3CC3)c12` [Example 8, 1-cyclopropyl-7-[(3R,4S)-3-cyclopropylaminomethyl-4-methyl-1-pyrrolidinyl]-1,4-dihydro-8-methoxy-4-oxo-3-quinolinecarboxylic acid], the MIC in the assay on E. faecalis IID682 came out at 500 µg/mL (≈ 1220 µM); against S. aureus MR5867, 31 µg/mL (≈ 75.3 µM); against S. aureus MS16401 it was 63 µg/mL (≈ 153 µM); against S. aureus Smith, 31 µg/mL (≈ 75.3 µM); with S. pneumoniae Type III, 125 µg/mL (≈ 304 µM).

For `COc1c(N2C[C@@H](CNC3CC3)[C@H](C)C2)c(F)cc2c(=O)c(C(=O)O)cn(C3CC3)c12` (relative stereo) [Example 5, 1-cyclopropyl-7-(trans-3-cyclopropylaminomethyl-4-methyl-1-pyrrolidinyl)-6-fluoro-1,4-dihydro-8-methoxy-4-oxo-3-quinolinecarboxylic acid], the MIC came to 125 µg/mL (≈ 291 µM) against E. faecalis IID682; 8 µg/mL (≈ 18.6 µM) against S. aureus MR5867; 16 µg/mL (≈ 37.3 µM) in the assay with S. aureus MS16401; 8 µg/mL (≈ 18.6 µM) in the assay with S. aureus Smith; 31 µg/mL (≈ 72.2 µM) with S. pneumoniae Type III.

In general, MIC refers to the least concentration at which growth counts as inhibited.
